# Experimental data: patent US20080108645A1, “Dihydrotetrabenazines And Pharmaceutical Compositions Containing Them” (CAMBRIDGE LABORATORIES, (IRELAND), LTD., priority 2004, published 2008)
# Target: T1, Adrenergic α2A Receptor (Homo sapiens, UniProt P08913)
# T1 construct: expressed in transfected cells; host or cells: insect Sf9 cells
# T1 sequence (P08913 1-465): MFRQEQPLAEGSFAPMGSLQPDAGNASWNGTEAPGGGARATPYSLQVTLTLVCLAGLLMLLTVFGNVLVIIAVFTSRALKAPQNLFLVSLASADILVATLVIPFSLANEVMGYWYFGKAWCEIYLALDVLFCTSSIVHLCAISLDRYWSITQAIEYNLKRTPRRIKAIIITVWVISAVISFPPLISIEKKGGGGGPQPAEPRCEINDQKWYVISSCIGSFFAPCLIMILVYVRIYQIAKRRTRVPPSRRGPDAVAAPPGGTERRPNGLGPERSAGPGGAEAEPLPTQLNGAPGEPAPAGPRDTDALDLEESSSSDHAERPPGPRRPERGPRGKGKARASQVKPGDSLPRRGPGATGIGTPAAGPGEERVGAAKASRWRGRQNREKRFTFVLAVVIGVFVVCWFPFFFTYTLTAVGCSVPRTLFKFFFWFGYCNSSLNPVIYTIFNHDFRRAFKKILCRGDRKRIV
# Assay: Adrenergic α2A receptor radioligand binding
# Details: 10 μM; 1 nM [3H] MK-912
# Method: (a) Adrenergic α2A Receptor: • Reference: S. Uhlen et al. J. Pharmacol. Exp. Ther., 271:1558-1565 (1994) • Source: Human recombinant insect Sf9 cells • Ligand: 1 nM [^3H] […] J. Pharmacol., 99:803-809, (1990) • Source: Wistar rat cerebral cortex • Ligand: 2 nM [3H]
row,Structure (SMILES),"Percentage Inhibition of Specific Binding, α2A Receptor"
1,"COc1cc2c(cc1OC)[C@H]1C[C@H](O)[C@@H](CC(C)C)CN1CC2 (single isomer, unassigned) [Isomer B, 3,11b-cis-dihydrotetrabenazine]",12%
2,"COc1cc2c(cc1OC)[C@H]1C[C@@H](O)[C@@H](CC(C)C)CN1CC2 (single isomer, unassigned) [Isomer C, 3,11b-cis-dihydrotetrabenazine]",13%
